# Assay results taken from article PMC6141559, “Human-like smelling of a rose scent using an olfactory receptor nanodisc-based bioelectronic nose” (Scientific Reports, 2018).
# Molecular target: T1, human olfactory receptor 1A2 (hOR1A2) (Homo sapiens, UniProt Q9Y585)
# T1 construct: gene OR1A2; hOR1A2 expressed in E. coli, purified and embedded in MSP1E3D1 nanodiscs
# T1 sequence (Q9Y585 1-309): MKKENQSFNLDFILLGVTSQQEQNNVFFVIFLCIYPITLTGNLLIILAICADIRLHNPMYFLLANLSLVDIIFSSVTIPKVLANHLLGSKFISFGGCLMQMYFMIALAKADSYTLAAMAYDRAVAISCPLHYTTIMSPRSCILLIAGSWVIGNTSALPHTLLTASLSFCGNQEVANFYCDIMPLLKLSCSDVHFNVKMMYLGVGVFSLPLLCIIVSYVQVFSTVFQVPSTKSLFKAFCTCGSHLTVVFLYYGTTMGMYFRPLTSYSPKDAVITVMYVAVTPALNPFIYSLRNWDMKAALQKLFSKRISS
# Assay: nanodisc-functionalized floating-electrode CNT-FET biosensor, equilibrium (association) constant from Hill-Langmuir fit; also HEK-293 luciferase assay (Kd […])
# Type: binding
# Details: read-out: nanodisc-functionalized floating-electrode CNT-FET biosensor, equilibrium (assoc) (converted)
smiles,measurement,value
CC(C)=CCCC(C)CCO (stereo not shown) [citronellol],Kd,385 nM
